Laboratory results reported in publication PMC4604124, “In Vitro Characterization of the Pharmacological Properties of the Anti-Cancer Chelator, Bp4eT, and Its Phase I Metabolites” (PLoS ONE, 2015).
Where “and” joins values, the source holds several entries; their conditions need not be identical. Equal values may be shown once. Read-outs that look alike come from different tables or passages of the source.

Tests used:
[1] = test system: HL-60 human promyelocytic leukemia cells; assay: MTT cytotoxicity assay, HL-60 cells; assay type: cell-based; conditions: for IC50: MTT, read-out: IC50
Procedure, shortened: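 Cytotoxicity toward HL-60 leukemia cells was measured by MTT after a 72 h/37°C incubation with compounds, following 24 h pre-culture at 10,000 cells/well in 96-well plates. All media contained 0.1% DMSO. Optical density at 570 nm, corrected at 690 nm, gave viability relative to untreated controls (100%). IC50 values came from CalcuSyn 2.0, and data are mean ± SD.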

[2] = test system: caspases 3/7; assay: Caspase activity, luminescent kit, caspases 3/7; assay type: cell-based, human; conditions: for kaspáza (3) a 7, raw signal / kaspáza (3) a 7, signal / viabilita: individual experiments by date; for kaspáza (3) a 7, raw signal, průměry / kaspáza (3) a 7, % kontroly / kaspáza (3) a 7, signal / viabilita, průměry: mean; for kaspáza (3) a 7, % kontroly / kaspáza (3) a 7, signal / viabilita / kaspáza (3) a 7, signal / viabilita, průměry: normalised to viability
[3] = Viability (viabilita) used to normalise caspase activity; assay type: cell-based, human; conditions: human, MCF-7 cells, kontrola = 100;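 note: compound tested at 100 nM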
From the text: Supplement pone.0139929.s002.zip/caspases activity.xlsx, sheet "results_viability"

[4] = test system: labile iron pool of MCF-7 cells; assay: Calcein-AM assay, access to the labile iron pool; assay type: cell-based, human; parameters: Calcein fluorescence: unit not given here; conditions: 10 μM; for Calcein fluorescence: mean (průměr)
Procedure, shortened: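 MCF-7 cells iron-loaded with ferric ammonium citrate (530 μg/mL) for 24 h, then loaded with 2 μM calcein-AM for 30 min at 37°C in ADS buffer, pH 7.4. Calcein fluorescence dequenching (ex 488/em 530 nm) followed for 10 min after adding 10 μM compound; efficacy expressed as percentage of Bp4eT (100%).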

[5] = test system: H9c2 cardiomyoblasts; assay: MTT cytotoxicity assay, H9c2 cells; assay type: cell-based, rat; conditions: for IC50: MTT; for MTT, relative to control (0 = 100): H9c2
Procedure, shortened: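 After 24 h attachment, the tumour lines (MCF-7 at 5,000; HCT116 and A549 at 2,000 cells/well) receive compounds directly, whereas H9c2 cardiomyoblasts (10,000 cells/well) first spend 24 h in serum- and pyruvate-free DMEM. Treatment lasts 72 h at 37°C in 0.1% DMSO, followed by MTT staining.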

## CCNC(=O)NN=C(c1ccccc1)c1ccccn1 [Z-Bp4eS, 2-benzoylpyridine 4-ethylsemicarbazone]
[1]; 3T3/HL-60
  Therapeutic index, IC50 non-cancerous cells / IC50 neoplastic cells: >21.6
[1]; H9c2/HL-60
  Therapeutic index, IC50 non-cancerous cells / IC50 neoplastic cells: 7.4
[1]; HL-60, 72 h/37°C, mean ± SD, n ≥ 4
  IC50: 46.2 ± 1.5 µM
[1]; HL-60, 10 000 b/j, 3 μM, průměr (mean), sheet Z-Bp4eS
  MTT, relative to control (0 = 100): 96.55
[1]; HL-60, 10 000 b/j, 3 μM, single experiment (date), sheet Z-Bp4eS
  MTT, relative to control (0 = 100): 99.8024 and 101.089 and 96.0475 and 94.6794 and 91.1123
[1]; HL-60, 10 000 b/j, 10 μM, průměr (mean), sheet Z-Bp4eS
  MTT, relative to control (0 = 100): 98.03
[1]; HL-60, 10 000 b/j, 10 μM, single experiment (date), sheet Z-Bp4eS
  MTT, relative to control (0 = 100): 97.8586 and 97.7431 and 101.779 and 97.3762 and 95.3935
[1]; HL-60, 10 000 b/j, 30 μM, průměr (mean), sheet Z-Bp4eS
  MTT, relative to control (0 = 100): 90.77
[1]; HL-60, 10 000 b/j, 30 μM, single experiment (date), sheet Z-Bp4eS
  MTT, relative to control (0 = 100): 95.7321 and 90.5946 and 90.8492 and 85.9082
[1]; HL-60, 10 000 b/j, 40 μM, průměr (mean), sheet Z-Bp4eS
  MTT, relative to control (0 = 100): 82.14
[1]; HL-60, 10 000 b/j, 40 μM, single experiment (date), sheet Z-Bp4eS
  MTT, relative to control (0 = 100): 82.3316 and 84.0304 and 91.7648 and 77.576 and 75.0054
[1]; HL-60, 10 000 b/j, 50 μM, průměr (mean), sheet Z-Bp4eS
  MTT, relative to control (0 = 100): 40.92
[1]; HL-60, 10 000 b/j, 50 μM, single experiment (date), sheet Z-Bp4eS
  MTT, relative to control (0 = 100): 42.5442 and 42.5088 and 37.382 and 41.2548
[1]; HL-60, 10 000 b/j, 80 μM, průměr (mean), sheet Z-Bp4eS
  MTT, relative to control (0 = 100): 2.08
[1]; HL-60, 10 000 b/j, 100 μM, průměr (mean), sheet Z-Bp4eS
  MTT, relative to control (0 = 100): 2.48
[1]; HL-60, 10 000 b/j, 300 μM, průměr (mean), sheet Z-Bp4eS
  MTT, relative to control (0 = 100): 2.72
[1]; HL-60, 10 000 b/j, 300 μM, single experiment (date), sheet Z-Bp4eS
  MTT, relative to control (0 = 100): 3.195 and 2.8028 and 2.136 and 2.734
[1]; HL-60, 10 000 b/j, single experiment (date), sheet Z-Bp4eS
  IC50: 46.2 µM and 48.3 µM and 45.5 µM
[1]; Homo sapiens, HL-60, HL-60, 10 000 b/j, průměr (mean), sheet Z-Bp4eS
  IC50: 46.2 µM
[1]; Homo sapiens, HL-60, HL-60, 10 000 b/j, single experiment (date), sheet Z-Bp4eS
  IC50: 44.9 µM
[2]; 3 hodiny
  kaspáza (3) a 7, raw signal: 1797.5 and 1540 and 1728.5 and 1382
  kaspáza (3) a 7, raw signal, průměry: 1612
  kaspáza (3) a 7, % kontroly: 100.57 % kontroly
  kaspáza (3) a 7, signal / viabilita: 18.4535 and 15.81 and 17.7452 and 14.1879
  kaspáza (3) a 7, signal / viabilita, průměry: 16.5491
[2]; 24 hodin
  kaspáza (3) a 7, raw signal: 2520 and 2115 and 2668.5 and 2356.5
  kaspáza (3) a 7, raw signal, průměry: 2415
  kaspáza (3) a 7, % kontroly: 106.11 % kontroly
  kaspáza (3) a 7, signal / viabilita: 25.3376 and 21.2655 and 26.8307 and 23.6936
  kaspáza (3) a 7, signal / viabilita, průměry: 24.2818
[2]; 72 hodin
  kaspáza (3) a 7, raw signal: 7018 and 6964.5 and 7418.5 and 7469
  kaspáza (3) a 7, raw signal, průměry: 7217.5
  kaspáza (3) a 7, % kontroly: 104.65 % kontroly
  kaspáza (3) a 7, signal / viabilita: 75.0267 and 74.4548 and 79.3083 and 79.8482
  kaspáza (3) a 7, signal / viabilita, průměry: 77.1595
[3]; 3 hodiny
  viability at 3 h, 100 nM: 97.4%
[3]; 24 hodin
  viability at 24 h, 100 nM: 99.5%
[3]; 72 hodin
  viability at 72 h, 100 nM: 93.5%
[4]; 30 sec
  Calcein fluorescence: 11.525
[4]; 60 sec
  Calcein fluorescence: 8.244
[4]; 90 sec
  Calcein fluorescence: 15.042
[4]; 120 sec
  Calcein fluorescence: 10.528
[4]; 300 sec
  Calcein fluorescence: 1.225
[4]; 600 sec
  Calcein fluorescence: 2.196
[4]; MCF-7, mean of 6 experiments
  Chelation efficacy: fluorescence of free calcein at t = 600 s as percentage of Bp4eT: 0.9956%
[4]; MCF-7, single experiments
  Fluorescence of free calcein at 600 s as percentage of Bp4eT: 0% and 5.974%
[5]; H9c2, 72 h/37°C, mean ± SD, n ≥ 4, read-out: IC50
  IC50: 343 ± 95.1 µM
[5]; 10 000 b/j, 1 μM, průměr (mean), sheet Z-Bp4eS
  MTT, relative to control (0 = 100): 99.81
[5]; 10 000 b/j, 1 μM, single experiment (date), sheet Z-Bp4eS
  MTT, relative to control (0 = 100): 102.371 and 103.08 and 95.5416 and 98.2281
[5]; 10 000 b/j, 3 μM, průměr (mean), sheet Z-Bp4eS
  MTT, relative to control (0 = 100): 93.78
[5]; 10 000 b/j, 3 μM, single experiment (date), sheet Z-Bp4eS
  MTT, relative to control (0 = 100): 92.602 and 95.2542 and 92.4159 and 94.8358
[5]; 10 000 b/j, 10 μM, průměr (mean), sheet Z-Bp4eS
  MTT, relative to control (0 = 100): 89.06
[5]; 10 000 b/j, 10 μM, single experiment (date), sheet Z-Bp4eS
  MTT, relative to control (0 = 100): 88.6483 and 89.659 and 90.3674 and 87.5524
[5]; 10 000 b/j, 30 μM, průměr (mean), sheet Z-Bp4eS
  MTT, relative to control (0 = 100): 76.27
[5]; 10 000 b/j, 30 μM, single experiment (date), sheet Z-Bp4eS
  MTT, relative to control (0 = 100): 77.9281 and 80.0605 and 74.6409 and 72.4521
[5]; 10 000 b/j, 100 μM, průměr (mean), sheet Z-Bp4eS
  MTT, relative to control (0 = 100): 56.31
[5]; 10 000 b/j, 100 μM, single experiment (date), sheet Z-Bp4eS
  MTT, relative to control (0 = 100): 59.4912 and 57.2744 and 57.5228 and 50.9483
[5]; 10 000 b/j, 300 μM, průměr (mean), sheet Z-Bp4eS
  MTT, relative to control (0 = 100): 53.60
[5]; 10 000 b/j, 300 μM, single experiment (date), sheet Z-Bp4eS
  MTT, relative to control (0 = 100): 52.3885 and 58.4831 and 53.7777 and 49.7549
[5]; 10 000 b/j, 1000 μM, průměr (mean), sheet Z-Bp4eS
  MTT, relative to control (0 = 100): 39.75
[5]; 10 000 b/j, 1000 μM, single experiment (date), sheet Z-Bp4eS
  MTT, relative to control (0 = 100): 41.1185 and 45.5292 and 39.9014 and 32.4603
[5]; Rattus norvegicus, H9c2, H9c2, 10 000 b/j, průměr (mean), sheet Z-Bp4eS, read-out: IC50 měřené
  IC50: 343 µM
